# US5089623A, “Certain imidate insecticides” (Imperial Chemical Industries Plc, priority 1990, dated 1992)
# How the values were obtained:
# Format in all cases: in vivo
# [1] = tested on: Housefly [Musca domestica]; experiment: Housefly insecticidal test (HF); settings: per 25 female houseflies, 48 hours
# [2] = tested on: Tobacco Budworm [Heliothis virescens (Fabricius)]; experiment: Tobacco budworm contact test (TBW-C); settings: second-instar larvae, 5 days, percent in solution
# Experimental: (§1) The compounds in Tables 1 and 2 above were tested for insecticidal activity using the following testing procedures. LC50 values, based on the results of these tests and calculated according to dosage-mortality curves, are expressed in Table 3.
# Tobacco Budworm [Heliothis virescens (Fabricius)]
# (a) Contact: Test compounds were diluted in a 50-50 acetonewater solution. Cotton (Gossypium sp.) cotyledons were immersed in the test solutions for 2-3 seconds and placed on a wire screen to dry. The dried leaves were placed in petri dishes containing a moistened piece of filter paper and infested with 5 second-instar tobacco budworm larvae. The dishes were placed in a high humidity chamber for 5 days, and percent mortality of the larvae recorded. Test concentrations ranged from 0.1% downward. The LC-50 values are expressed below in Table 3 under the heading "TBW-C" in terms of percent of the test compound in the solution.
# [3] = tested on: Tobacco Budworm [Heliothis virescens (Fabricius)] eggs; experiment: Tobacco budworm egg test (TBW-E); settings: percent in solution
# [4] = tested on: Beet Armyworm (Spodoptera exigua); experiment: Beet armyworm test (BAW)
# Experimental: as §1
# Beet Armyworm (Spodoptera exigua)
# Test compounds were diluted in a 50-50 acetone-water solution. Young leaves of sugar beets (Beta vulgaris) were immersed in the test solutions for 2-3 seconds and placed on a wire screen to dry. The dried leaves were placed in petri dishes containing a moistened filter paper and infested with five second-instar beet armyworm larvae. The dishes were placed in a high humidity chamber. Mortality of the larvae was recorded five days later. Test concentrations ranged from 0.1% downward. The LC-50 values are expressed below in Table 3 under the heading "BAW" in terms of percent of the test compound in solution.
# [5] = tested on: Cabbage Looper [Trichoplusia ni (Hubner)]; experiment: Cabbage looper test (CL); settings: second-instar larvae, 3-5 days, percent in solution
# [6] = tested on: Aster Leafhopper [Macrosteles fascifrens (Stal)]; experiment: Aster leafhopper test (LH); settings: adults/nymphs, 48 hours, percent in solution
# [7] = tested on: Maize weevil [Sitophilus Zeamais (Motschulsky)]; experiment: Maize weevil test (MW); settings: adult weevils, treated corn seeds, 48 hours, percent in solution
# Method in brief: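 Adult weevils (10) were placed with four corn seeds that had been dipped 2-3 s in compound dissolved in 50:50 acetone:water, then dried, and held at about 25° C. Mortality was scored at 48 h. LC50 was taken from dosage-mortality curves and expressed as percent compound in solution, from a 0.01% top concentration.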
# [8] = second-instar larvae, five days, percent in solution
SMILES,LC50 HF [1] [µg],LC50 TBW C [2] [%],LC50 TBW E [3] [%],"LC50 BAW [4, 8] [%]",LC50 CL [5] [%],LC50 LH [6] [%],LC50 MW [7] [%],LC50 BAW ([4]; 120 h) [%]
CC(C)C(=Nc1ccc(F)c(Cl)c1)OCc1ccc(F)c(Oc2ccc(F)c(F)c2)c1 [Compound 346],7.2,0.0002,> 0.1,> 0.1,> 0.1,0.05,,
Clc1ccc(N=C(OCc2cccc(Oc3ccccc3)c2)C(Cl)Cl)c(Cl)c1 [Compound 4],100,0.05,> 0.1,0.04,0.007,> 0.05,,
CC(C)C(=Nc1ccc(Cl)cc1)OCc1cccc(Oc2ccccc2)c1 [Compound 2],4.5,0.0009,0.04,0.01,0.006,0.0003,,
CC(C)C(=Nc1ccc(Br)cc1)OCc1ccc(F)c(Oc2ccc(F)cc2)c1 [Compound 333],15,0.00075,0.025,> 0.1,0.00024,,> 0.01,
CC(C)C(=Nc1cccc(F)c1)OCc1cccc(Oc2ccccc2)c1 [Compound 47],10,0.002,0.06,0.002,0.002,0.0003,,
CC(C)C(=Nc1ccc(F)c(F)c1)OCc1cccc(Oc2ccccc2)c1 [Compound 54],3.5,0.001,0.017,0.004,0.0003,0.00015,,
CC(C)C(=Nc1ccc(F)cc1F)OCc1cccc(Oc2ccccc2)c1 [Compound 52],8,0.004,> 0.05,0.01,0.0025,0.001,,
CC(C)C(=Nc1ccc(I)cc1)OCc1ccc(F)c(Oc2ccc(F)cc2)c1 [Compound 335],34,0.00025,0.05,> 0.1,0.00027,,> 0.01,
CC(C)C(=Nc1ccc(Cl)c(C(F)(F)F)c1)OCc1cccc(Oc2ccccc2)c1 [Compound 71],50,0.0008,0.065,0.0004,0.0006,0.002,,
Fc1ccc(N=C(OCc2cccc(Oc3ccccc3)c2)C2CC2)cc1 [Compound 45],30,0.01,0.08,,0.03,> 0.05,,0.1
CC(C)C(=Nc1ccc2c(c1)OC(C)(C)O2)OCc1ccc(F)c(Oc2ccc(F)cc2)c1 [Compound 283],23,0.0009,0.016,0.0013,0.00009,,> 0.01,
CC(C)C(=Nc1ccc(Br)c(F)c1)OCc1ccc(F)c(Oc2ccc(F)cc2)c1 [Compound 282],16,0.0007,0.02,0.0025,0.00007,,0.008,
CC(C)C(=Nc1ccc(F)c(Cl)c1)OCc1cc(Oc2ccc(F)cc2)c(F)cc1F [Compound 343],40,0.00025,> 0.1,> 0.1,0.00027,,> 0.01,
CC(C)C(=Nc1ccc2c(c1)OC(F)(F)O2)OCc1cccc(Oc2ccc(Cl)cc2)c1 [Compound 450],72,0.0001,0.015,0.005,0.00016,,0.01,
FC(F)(F)c1ccc(N=C(OCc2cccc(Oc3ccccc3)c2)C2CC2)c(Cl)c1 [Compound 65],> 100,0.1,> 0.1,,< 0.01,> 0.05,,> 0.1
Cc1c(Cl)cccc1N=C(OCc1cccc(Oc2ccccc2)c1)C(Cl)Cl [Compound 97],10,0.004,0.04,0.01,0.002,,,
CC(C)C(=Nc1ccc(F)c(I)c1)OCc1ccc(F)c(Oc2ccc(Cl)cc2)c1 [Compound 326],25,0.0005,0.03,0.004,0.00015,,,
CC(C)C(=Nc1ccc(F)cc1)OCc1ccc(F)c(Oc2ccccc2)c1 [Compound 53],2,0.0025,0.02,0.003,0.0005,,,
Cc1ccc(N=C(OCc2cccc(Oc3ccccc3)c2)C(Cl)Cl)cc1 [Compound 139],4.2,0.005,0.05,0.007,0.015,,,
CC(C)C(=Nc1ccc(F)c(Cl)c1F)OCc1cccc(Oc2ccccc2)c1 [Compound 332],7,0.00075,0.015,0.0012,0.00045,,,
CC(C)C(=Nc1ccc(F)c(Cl)c1F)OCc1cccc(Oc2ccc(Cl)cc2)n1 [Compound 500],16,0.00075,0.02,0.002,0.00009,,,
